The source of these data is the OPERA property sets (Mansouri et al. 2018).

Structures are written as SMILES.

As for `COc1ccccc1OCCNCC(O)COc1cccc2[nH]c3ccccc3c12` (stereo not given), the lipophilicity (logP) – broadly, the decadic logarithm of the partition coefficient of the neutral form, usually between octanol and water – turned out to be 4.19.

The compound `COc1ccc(Cc2nccc3cc(OC)c(OC)cc23)cc1OC` yielded a lipophilicity (logP) of 2.95.

In the case of `Cc1cnc(NC(=O)C2=C(O)c3ccccc3S(=O)(=O)N2C)s1`, the logP was determined as 3.43.

As to `CC(C)(C)S(=O)(=O)CC(Cc1ccccc1)C(=O)NC(Cc1cnc[nH]1)C(=O)NC(CC1CCCCC1)C(O)C(O)C1CC1` (stereo not given), the logP came to 2.75.

`N#CC(C#N)Cc1ccc(O)cc1` yielded a logP of 3.08.

As for `CCCCCCCCCNCc1ccc(C)cc1`, the logP is 5.7.

Compound `COS(=O)c1ccc(O)cc1` (stereo not given) gave a lipophilicity (logP) of 0.58.

`CCCCNc1ccc(C(=O)OCCN(C)C)cc1` had a lipophilicity (logP) of 3.51.

In turn, `CCc1cc(CC(C#N)C#N)cc(CC)c1O` displayed a lipophilicity (logP) of 4.12.

With `CC(C)(C)S(=O)(=O)CC(Cc1cccc2ccccc12)C(=O)NC(Cc1cnc[nH]1)C(=O)NC(CC1CCCCC1)C(O)C(O)C1CC1` (stereo not given), the log partition coefficient (logP) amounted to 3.15.

`CCCc1c2c(c(O)c3c(=O)cc(C(=O)O)oc13)CCCC2` yielded a lipophilicity (logP) of 5.

`N[C@@H](Cc1ccccc1)C(=O)O` (racemic): the logP is -1.38.

Compound `CN1C(C(=O)Nc2ccccn2)=C(O)c2ccccc2S1(=O)=O` came in with a logP of 3.06.

Turning to `O=C1O[C@H]([C@@H](O)CO)C(O)=C1O`, the lipophilicity (logP) is -1.85.

Take `CCN(CC)CCOC(=O)c1ccc(N)cc1`: the logP was 2.14.
